Experimental data published in patent US6696457B1, “Morphinoid compounds” (SmithKline Beecham p.l.c., priority 1999, dated 2004).
Where a name gives a salt, the structure may show the parent alone.

How the values were obtained:
[1] = metabolic stability: intrinsic clearance in liver microsomes; format: in vitro ADME, human; details: 0.5 uM compound, 0.5 mg/ml microsomal protein, 37° C., 30 minutes, NADPH regenerating system
Method: The metabolic stability of the compounds of the invention was determined in the following manner: the compounds were incubated (37° C.) at 0.5 uM over 30 minutes with microsomal protein (at a concentration of 0.5 mg/ml) and an NADPH regenerating system (cofactor); the incubation volume was made up to a total of 1 mL with 50 mM potassium phosphate buffer (pH 7.4).
All of the incubation components, apart from cofactor, were pre-incubated for approximately 5 minutes then the reaction was started by the addition of cofactor solution. 50 uL samples were removed from the incubation at 3 minute intervals and placed into 200 uL of acetonitrile (containing an Internal Standard) to precipitate the microsomal protein and terminate the reaction.
All samples were analysed by LC/MS for parent compound and Internal Standard (I.S) and the results calculated as peak area ratios: compound/I.S.
The peak area ratios were plotted against time and intrinsic clearance values were calculated from the fitted exponential decay curve:
CLint (mL/min/g liver)=(k·V·microsomal yield)/[protein] […]
k=rate constant from the exponential decay curve
V=incubation volume (1 mL) microsomal yield=standard microsomal protein yield from 1 g liver (52.5 mg) [protein]=protein concentration in each incubation (0.5 mg/mL); a solution containing 0.5 uM of the compound under study was incubated with 0.5 mg of liver microsomal protein over 30 min at 37° C. Samples were taken, protein precipitated with acetonitrile and centrifuged prior HPLC-MS analysis.

[2] = target: T1, human delta opioid receptor (h-DOR/CHO) (Homo sapiens, UniProt P41143); assay: cAMP bioassay: inhibition of forskolin-stimulated cAMP in h-DOR/CHO cells; format: cell-based
T1 construct: expressed in transfected cells
Method: The delta agonistlantagonist activity of the compounds of the present invention is determined in the cAMP bioassay in CHO cell lines stably expressing the human delta opioid receptor (h-DOR/CHO).
For the cAMP assay whole h-DOR/CHO cells were incubated with test compounds in Krebs-Ringer 200 mM, buffered with HEPES, containing (mM): NaCl (125), KCl (5), KH2PO4 (0.4), MgSO4 (1.2), CaCl2 (1.2), NaHCO3(25), glucos (12) and IBMX (1). Cells were treated with forskolin […] to stimulate cAMP synthesis.
The cAMP content was determined using a double antibody [^125I]-cAMp radioimmunoassay (Amersham RPA 509). The data were normalised to protein content.

[3] = in vivo clearance and absolute bioavailability

T1 sequence (P41143 whole entry): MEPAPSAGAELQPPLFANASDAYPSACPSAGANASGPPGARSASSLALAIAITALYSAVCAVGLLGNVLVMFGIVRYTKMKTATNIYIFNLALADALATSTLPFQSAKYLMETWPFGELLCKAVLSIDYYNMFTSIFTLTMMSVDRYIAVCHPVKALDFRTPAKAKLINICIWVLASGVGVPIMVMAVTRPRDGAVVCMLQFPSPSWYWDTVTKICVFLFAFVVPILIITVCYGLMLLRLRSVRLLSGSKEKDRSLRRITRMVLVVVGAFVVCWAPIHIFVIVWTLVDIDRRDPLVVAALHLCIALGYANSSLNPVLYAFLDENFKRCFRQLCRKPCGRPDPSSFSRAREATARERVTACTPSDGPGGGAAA

Question: Which melting point does the source give for Cc1c(C(=O)N(Cc2ccccc2)C(C)C)[nH]c2c1C[C@@]1(O)[C@H]3Cc4ccccc4[C@@]1(CCN3)C2 (as salt: hydrochloride) [Example 2, [10R,4bR-(4b beta,9a beta)]-7-[(N-benzyl-N-isopropyl)aminocarbonyl]-8-methyl-4b,5,9,9a, 10,11-hexahydro-9a-hydroxy-(6H)-10,4b-(iminoethano)phenanthro-[3,2-b]pyrrole] here?
Answer: The melting point was > 250 °C.

Question: With Cc1c(C(=O)N(C(C)C)C(C)C)[nH]c2c1CC1(O)C3Cc4ccccc4C1(CCN3)C2 (stereo not drawn) [Example 1, [10R,4bR-(4b beta,9a beta)]-7-(N,N-diisopropyl)aminocarbonyl-8-methyl-4b,5,9,9a, 10,11-hexahydro-9a-hydroxy-(6H)-10,4b-(iminoethano)phenanthro[3,2-b]pyrrole] as the molecule, how does the “in vitro Clearance (human microsomes) CL” value [1] read?
Answer: Its value is 1.3 ml/min/g liver.

Question: With Cc1c(C(=O)N(Cc2ccccc2)C(C)C)[nH]c2c1C[C@@]1(O)[C@H]3Cc4ccccc4[C@@]1(CCN3)C2 [Example 2, [10R,4bR-(4b beta,9a beta)]-7-[(N-benzyl-N-isopropyl)aminocarbonyl]-8-methyl-4b,5,9,9a, 10,11-hexahydro-9a-hydroxy-(6H)-10,4b-(iminoethano)phenanthro-[3,2-b]pyrrole] as the molecule, how does the IC50 [2] read?
Answer: The IC50 was 1.15 nM.

Question: What about the “antagonism of the agonist activity by the selective delta antagonist naltrindole” value ([2]; naltrindole 100 nM, h-DOR/CHO cells) of the same molecule?
Answer: Its value is “completely antagonised”.

Question: For CCN(CC)C(=O)c1[nH]c2c(c1C)C[C@@]1(O)[C@H]3Cc4ccccc4[C@@]1(CCN3)C2 [Example 3, [10R,4bR-(4b beta,9a beta)]-7-(N,N-diethyl)aminocarbonyl-8-methyl-4b,5,9,9a, 10,11-hexahydro-9a-hydroxy-(6H)-10,4b-(iminoethano)phenanthro[3,2-b]pyrrole], which “in vivo Clearance CL” value [3] is on record?
Answer: Its value is 27 ± 2 mL/min/kg.

Question: And the “in vivo Absolute bioavailability F ipv” value ([3]; ipv)?
Answer: Its value is 60 ± 7%.

Question: And the “in vitro Clearance (human microsomes) CL” value [1]?
Answer: The value was 0.8 ml/min/g liver.

Question: For Cc1c(C(=O)N(Cc2ccccc2)C(C)C)[nH]c2c1CC1C3Cc4ccccc4C1(CCN3)C2 (stereo not drawn) [Example 4, [10R,4bS-(4b beta,9a beta)]-7-(N-isopropyl-N-benzyl)aminocarbonyl-8-methyl-4b,5,9,9a, 10,11-hexahydro-(6H)-10-,4b-(iminoethano)phenanthro[3,2-b]pyrrole], which “in vitro Clearance (human microsomes) CL” value [1] is on record?
Answer: The value was 3.3 ml/min/g liver.

Question: Which “in vitro Clearance (human microsomes) CL” value [1] does the source give for CCN(Cc1ccccc1)C(=O)c1[nH]c2c(c1C)CC1(O)C3Cc4ccccc4C1(CCN3)C2 (stereo not drawn) [Example 5, [10R,4bR-(4b beta,9a beta)]-7-(N-benzyl-N-ethyl)aminocarbonyl-8-methyl-4b,5,9,9a, 10,11-hexahydro-9a-hydroxy-(6H)-10,4b-(iminoethano)phenanthro[3,2-b]pyrrole] here?
Answer: The value was 2.0 ml/min/g liver.

Question: Which “in vitro Clearance (human microsomes) CL” value [1] does the source give for Cc1c(C(=O)N2CCc3ccccc3C2)[nH]c2c1CC1(O)C3Cc4ccccc4C1(CCN3)C2 (stereo not drawn) [Example 6, [10R,4bR-(4b beta,9a beta)]-7-(1,2,3,4-tetrahydroisoquinolin-2-yl)carbonyl-8-methyl-4b,5,9,9a, 10,11-hexahydro-9a-hydroxy-(6H)-1 0,4b-(iminoethano)phenanthro[3,2-b]pyrrole] here?
Answer: The value was <0.6 ml/min/g liver.

Question: Which melting point does the source give for Cc1c(C(=O)CC(C)C)[nH]c2c1C[C@@]1(O)[C@H]3Cc4ccccc4[C@@]1(CCN3)C2 [Example 7, [10R,4bR-(4b beta,9a beta)]-7-isobutylcarbonyl-8-methyl4b,5,9,9a,10,11-hexahydro-9a-hydroxy-(6H)-10,4b-(iminoethano)phenanthro[3,2-b]pyrrole] here?
Answer: Its melting point is 170 to 175 °C.

Question: And the “in vitro Clearance (human microsomes) CL” value [1]?
Answer: The value was <0.6 ml/min/g liver.

Question: Which “in vitro Clearance (human microsomes) CL” value [1] does the source give for CCN(C(=O)c1[nH]c2c(c1C)C[C@@]1(O)[C@H]3Cc4ccccc4[C@@]1(CCN3)C2)c1ccccc1 [Example 8, [10R,4bR-(4b beta,9a beta)]-7-[(N-phenyl-N-ethyl)aminocarbonyl]-4b,5,9,9a, 10,11-hexahydro-9a-hydroxy-(6H)-8-methyl-10,4(iminoethano)-phenanthro[3,2-b]pyrrole] here?
Answer: Its value is 5.9 ml/min/g liver.

Question: For Cc1c2c(n(C)c1C(=O)N(Cc1ccccc1)C(C)C)CC13CCNC(Cc4ccccc41)C3(O)C2 (stereo not drawn) [Example 10, [10R,4bS-(4b beta,9a beta)]-7-(N-benzyl-N-isopropyl)aminocarbonyl-6,8-dimethyl-4b,5,9,9a, 10,11-hexahydro-9a-hydroxy-(6H)-10,4b-(iminoethano)-phenanthro[3,2-b]pyrrole], which “in vitro Clearance (human microsomes) CL” value [1] is on record?
Answer: Its value is 5.2 ml/min/g liver.

Question: For CCN(Cc1ccccc1)C(=O)c1c(C)c2c(n1C)CC13CCNC(Cc4ccccc41)C3C2 (stereo not drawn) [Example 11, [10R,4bS-(4b beta,9a beta)]-7-(N-ethyl-N-benzyl)aminocarbonyl-6,8-dimethyl-4b,5,9,9a,10,11-hexahydro-(6H)-10-,4b-(iminoethano)phenanthro[3,2-b]pyrrole], which “in vitro Clearance (human microsomes) CL” value [1] is on record?
Answer: The value was 13.0 ml/min/g liver.

Question: For Cc1c(C(=O)N2CCc3ccccc3C2)[nH]c2c1CC1(O)C3Cc4ccccc4C1(CCN3C)C2 (stereo not drawn) [Example 21, [10R,4bR-(4b beta,9a beta)]-7-(1,2,3,4-tetrahydroisoquinolin-2-yl)carbonyl-8,14-dimethyl-4b,5,9,9a,10,11-hexahydro-9a-hydroxy-(6H)-10,4b-(iminoethano)phenanthro-[3,2-b]pyrrole], which “in vitro Clearance (human microsomes) CL” value [1] is on record?
Answer: The value was 6.0 ml/min/g liver.

Question: Which “in vitro Clearance (human microsomes) CL” value [1] does the source give for “[10R,4bR-(4bb,9ab)]-7-(N,N-diisopropyl)aminocarbonyl-8,14-dimethyl4b,5,9,9a,10,11-hexahydro9a-hydroxy-(6H)-10,4b-(iminoethano)phenanthro[3,2-b]pyrrole. [Example 19]” here?
Answer: Its value is 5.7 ml/min/g liver.

Question: With “[10R,4bS-(4b beta,9a beta)]-7-(N-ethyl-N-phenyl)aminocarbonyl-8-methyl-4b,5,9,9a, 10,11-hexahydro-(6H)-10,4b-(iminoethano)phenanthro[3,2-b]pyrrole [Example 9]” as the molecule, how does the “in vitro Clearance (human microsomes) CL” value [1] read?
Answer: The value was 4.5 ml/min/g liver.
